Reference: article PMC9099121, “Population pharmacokinetic and exposure‐response analyses from ALTA‐1L: Model‐based analyses supporting the brigatinib dose in ALK‐positive NSCLC” (Clinical and Translational Science, 2022)

Legend:
[1] = Population PK model (Bayesian re-estimation), brigatinib arm of ALTA-1L (first-line); assay type: in vivo, human; details: geometric mean (5th and 95th percentiles)
Description: The population PK and exposure‐response analyses evaluated data from the brigatinib arm (180 mg q.d. with a 7‐day lead‐in at 90 mg q.d.) of the ALTA‐1L trial (second interim analysis, data cutoff date: June 28, 2019).[8] […] Blood samples for measurement of brigatinib plasma concentrations were obtained predose on day 1 of cycle one (28 day/cycle); predose and 1, 4, and 6 to 8 h postdose on day 1 of cycle two; and predose and any time between 1 and 8 h postdose on day 1 of cycles three, four, and five. Plasma samples were analyzed for brigatinib concentrations using a validated liquid chromatography/tandem mass spectrometry assay with a lower limit of quantification of 5 ng/mL. Efficacy assessments were based on computed tomography or magnetic resonance imaging performed at screening, every 8 weeks through cycle 14, and then every 12 weeks through treatment discontinuation.[8] Safety data were collected as they were reported.
(§1) The previously developed population PK model[11] was used for population PK analyses of ALTA‐1L data. The previous analysis provided a robust and comprehensive characterization of brigatinib PK and sources of variability. Importantly, the previous analysis included 202 patients with ALK+ NSCLC that progressed on other ALK TKIs, representing a similar patient population to patients receiving first‐line brigatinib in ALTA‐1L. These considerations supported a Bayesian re‐estimation approach for deriving individual brigatinib PK parameters in ALTA‐1L using the previously reported model, and the model was applied without modification. In brief, the population PK model described brigatinib PK using a three‐compartment model with linear distribution and elimination kinetics and first‐order absorption preceded by a set of transit compartments.[11] The model included albumin concentration as a covariate on apparent oral clearance (CL/F). Bayesian re‐estimation was performed by setting initial model conditions to values of fixed effects and random effect variances previously estimated,[11] allowing for estimation of individual PK parameters based on the PK observations in the ALTA‐1L dataset.
(§2) Diagnostic plots were created to compare brigatinib PK in patients in ALTA‐1L (first‐line setting) and ALTA (second‐line setting). […] In exploratory analyses, relationships between covariates of interest and model‐based exposure estimates were evaluated using linear regression models with each covariate as a predictor.

[2] = Population PK model post hoc estimates, ALTA (second-line); assay type: in vivo, human; details: geometric mean (5th and 95th percentiles); ALTA n = 201
Source text: as §1, §2

[3] = Linear regression of covariates versus post hoc steady-state AUC, ALTA-1L; assay type: in vivo, human; details: for Percentage change in steady-state AUC relative to value at median covariate [95% CI] / Percentage change in median AUC (with 95% CI) relative to the most common reference category: 180 mg once daily
Description: as §2

ALK+ NSCLC = assay: Exposure-PFS analysis (Kaplan-Meier, Cox PH models), ALTA-1L; assay type: in vivo, human
Description: Model‐based estimates of CL/F and actual dosing history were used to derive exposure metrics of interest. Several exposure metrics were considered, including both static and dynamic area under the concentration‐time curve (AUC) estimates (Methods S1).
First, the relationship between PFS and two static exposure metrics, time‐averaged AUC between the last two disease assessment scans preceding progression or censoring and time‐averaged AUC until progression, was evaluated. These exposure‐PFS relationships were characterized by a proportional hazard (PH) model relating exposure to the hazard of PFS. The hazard function was expressed as: (1) λt=λ0te^β^TXi where λ 0 (t) is the baseline hazard function and Xi is a vector of predictor variables for an individual patient. The parameter vector β was estimated by maximum partial likelihood and captures the effect of exposure and/or additional covariates on the hazard of disease progression.
Next, the relationship between PFS and two dynamic exposure metrics, daily time‐varying AUC between the last two disease assessment scans preceding progression or censoring and daily time‐varying AUC until progression, was evaluated. These analyses used a time‐dependent covariate Cox PH model relating time‐dependent exposure to PFS. The hazard function was expressed as: (2) λt=λ0te^β1×AUCDt+β^TXi where model parameters were as above in Equation 1, except that exposure (AUCDt ) was a time‐dependent predictor rather than a constant for each patient.
For each static exposure‐PFS analysis, Kaplan‐Meier (KM) plots of PFS probability over time were generated and stratified by brigatinib exposure quartiles. Crizotinib PFS curves were overlaid for comparison.
Dynamic daily time-averaged AUC between successive disease assessment scans preceding the event or censoring for PFS, obtained as the average of daily AUCs within each scan interval.
Time averaged AUC until PFS= Cumulative dose to progressionOral brigatinib clearance/ (days to progression)

[4] = Exposure-safety analysis and AE incidence, ALTA-1L; assay type: in vivo, human
Source text: […] AEs of interest selected for analysis included eight grade two or higher AEs (increased alanine aminotransferase [ALT], AST, or amylase; hyperglycemia; hypertension; bradycardia; rash; and pulmonary events [pneumonitis or ILD]), five grade three or higher AEs (increased CPK, AST, ALT, amylase, and lipase), and a composite grade three or higher AE end point that included grade three or higher CPK, AST, ALT, amylase, or lipase elevations; hyperglycemia; hypertension; bradycardia; rash; and pulmonary events.
AEs were included in the analysis if they occurred any time between the first day of brigatinib dosing and 30 days after the last dose. AEs were defined according to the National Cancer Institute Common Toxicity Criteria for Adverse Events version 4.03. The relationship between time‐averaged exposure and AE probability was examined using the same logistic regression models described for the exposure–clinical response analyses. Probability of an AE was plotted against exposure, with observed probabilities calculated by exposure quartiles.
The relationship between brigatinib exposure and time to first brigatinib dose reduction was also explored. A KM plot of time to first brigatinib dose reduction was generated, with survival curves binned by brigatinib exposure quartiles, where exposure was defined as the time‐averaged AUC to the first occurrence of dose reduction.

[5] = system: advanced ALK+ NSCLC that progressed on crizotinib; details: ALTA, cited from earlier work
[6] = system: advanced ALK inhibitor-naive ALK+ NSCLC; details: cited from earlier work
[7] = parameters: method as in earlier work; details: after administration of 180 mg q.d.; cited from earlier work
[8] = in ALTA and ALTA-1L; cited from earlier work
[9] = 180 mg q.d. with 7-day lead-in at 90 mg q.d.
[10] = patients with measurable baseline brain metastases

COc1cc(N2CCC(N3CCN(C)CC3)CC2)ccc1Nc1ncc(Cl)c(Nc2ccccc2P(C)(C)=O)n1 [brigatinib]
Albumin covariate effect on CL/F ([1]; ALTA-1L n = 123): 1.03 (0.874, 1.13)
CL/F ([1]; ALTA-1L n = 123): 8.45 (4.04, 17.8) L/h
Mean transit time ([1]; ALTA-1L n = 123): 1.01 (0.538, 2.36) h
Q2/F ([1]; ALTA-1L n = 123): 12.6 (12.6, 12.6) L/h
Q3/F ([1]; ALTA-1L n = 123): 2.67 (2.67, 2.67) L/h
V1/F ([1]; ALTA-1L n = 123): 160 (69.0, 302) L
V2/F ([1]; ALTA-1L n = 123): 118 (46.5, 283) L
V3/F ([1]; ALTA-1L n = 123): 78.5 (78.5, 78.5) L
AUC ([1]; human, plasma, oral, maintenance dose 180 mg q.d., ALTA-1L, read-out: Daily steady-state post hoc AUC): 21300 ng·h/mL
Albumin covariate effect on CL/F [2]: 0.939 (0.758, 1.09)
CL/F [2]: 9.90 (4.06, 23.0) L/h
Mean transit time [2]: 0.998 (0.584, 1.92) h
Q2/F [2]: 12.6 (12.6, 12.6) L/h
Q3/F [2]: 2.67 (2.67, 2.67) L/h
V1/F [2]: 199 (86.0, 468) L
V2/F [2]: 124 (78.3, 259) L
V3/F [2]: 78.5 (78.5, 78.5) L
Percentage change in steady-state AUC relative to value at median covariate [95% CI] ([3]; ALT, 5th percentile): 0 [-6; 4] %
Percentage change in steady-state AUC relative to value at median covariate [95% CI] ([3]; ALT, 95th percentile): 2 [-21; 28] %
Percentage change in steady-state AUC relative to value at median covariate [95% CI] ([3]; AST, 5th percentile): -4 [-9; 4] %
Percentage change in steady-state AUC relative to value at median covariate [95% CI] ([3]; AST, 95th percentile): 11 [-11; 38] %
Percentage change in steady-state AUC relative to value at median covariate [95% CI] ([3]; age, 5th percentile): -26 [-39; -15] %
Percentage change in steady-state AUC relative to value at median covariate [95% CI] ([3]; age, 95th percentile): 27 [15; 43] %
Percentage change in steady-state AUC relative to value at median covariate [95% CI] ([3]; albumin at baseline, 5th percentile): 3 [1; 14] %
Percentage change in steady-state AUC relative to value at median covariate [95% CI] ([3]; albumin at baseline, 95th percentile): -2 [-5; 0] %
Percentage change in steady-state AUC relative to value at median covariate [95% CI] ([3]; body weight, 5th percentile): 12 [3; 21] %
Percentage change in steady-state AUC relative to value at median covariate [95% CI] ([3]; body weight, 95th percentile): -18 [-31; -5] %
Percentage change in steady-state AUC relative to value at median covariate [95% CI] ([3]; eGFR, 5th percentile): 2 [-9; 14] %
Percentage change in steady-state AUC relative to value at median covariate [95% CI] ([3]; eGFR, 95th percentile): -3 [-22; 15] %
Percentage change in median AUC (with 95% CI) relative to the most common reference category ([3]; race: Asian (n = 53) vs White (n = 68)): -6 [-21; 12] %
Percentage change in median AUC (with 95% CI) relative to the most common reference category ([3]; sex: Female (n = 60) vs Male (n = 63)): 15 [-3; 37] %
Percentage change in steady-state AUC relative to value at median covariate [95% CI] ([3]; total bilirubin, 5th percentile): -11 [-24; 8] %
Percentage change in steady-state AUC relative to value at median covariate [95% CI] ([3]; total bilirubin, 95th percentile): 17 [-12; 41] %
Magnitude of relative difference in predicted AUC for each stratum compared with the most common stratum ([3]; categorical covariates (sex and race), ALTA-1L): less than 20%
Magnitude of relative difference in predicted AUC at 5th and 95th percentiles relative to median of covariate ([3]; continuous covariates (age, eGFR, body weight, total bilirubin, AST, ALT), ALTA-1L): below 30%
Variability in post hoc AUC, 5th and 95th percentiles relative to predicted AUC for a typical patient ([3]; overall ALTA-1L population, typical patient with albumin 41 g/L): −60% to +263
Cox PH ratio for PFS versus exposure (ALK+ NSCLC; dynamic metric: daily time-averaged AUC between successive disease assessments preceding PFS event or censoring, p = 0.08): 1.02
Cox PH ratio for PFS versus exposure (ALK+ NSCLC; dynamic metric: daily time-varying AUC preceding progression or censoring, p = 0.69): 1.01 [0.98–1.03]
HR [95% CI] of disease progression or death per one-unit increase in exposure (Cox PH model) (ALK+ NSCLC; static metric: time-averaged AUC between the last two disease assessments, p = 0.01): 1.03 [1.01–1.05]
Incidence of ALT increase, Grade ≥2 ([4]; n = 123): 18 (14.6) n (%)
Incidence of ALT increase, Grade ≥3 ([4]; n = 123): 6 (4.9) n (%)
Incidence of AST increase, Grade ≥2 ([4]; n = 123): 10 (8.1) n (%)
Incidence of AST increase, Grade ≥3 ([4]; n = 123): 5 (4.1) n (%)
Incidence of Amylase increase, Grade ≥2 ([4]; n = 123): 24 (19.5) n (%)
Incidence of Amylase increase, Grade ≥3 ([4]; n = 123): 10 (8.1) n (%)
Incidence of Bradycardia, Grade ≥2 ([4]; n = 123): 2 (1.6) n (%)
Incidence of CPK increase, Grade ≥3 ([4]; n = 123): 32 (26.0) n (%)
Incidence of Hyperglycemia, Grade ≥2 ([4]; n = 123): 2 (1.6) n (%)
Incidence of Hypertension, Grade ≥2 ([4]; n = 123): 38 (30.9) n (%)
Incidence of Lipase increase, Grade ≥3 ([4]; n = 123): 22 (17.9) n (%)
Incidence of Pulmonary AEs (pneumonitis and interstitial lung disease), Grade ≥2 ([4]; n = 123): 2 (1.6) n (%)
Incidence of Rash, Grade ≥2 ([4]; n = 123): 15 (12.2) n (%)
Incidence of Any AE, Grade ≥3 ([4]; n = 123, composite of CPK, AST, ALT, amylase, lipase, hyperglycemia, hypertension, bradycardia, rash, pulmonary events): 64 (52.0) n (%)
Odds ratio, grade ≥3 lipase increase per 1 µg·h/mL/day increase in exposure ([4]; time-averaged AUC across days 8 to 14 of cycle one, 95% CI: 1.00–1.10, p = 0.039): 1.05
Odds ratio, grade ≥2 amylase increase per 1 µg·h/mL/day increase in exposure ([4]; time-averaged AUC across days 8 to 14 of cycle one, 95% CI: 1.01–1.11, p = 0.016): 1.06
Estimated odds ratio, grade ≥3 lipase increase versus exposure ([4]; time-averaged AUC to first occurrence of an event, 95% CI: 0.99–1.07, p = 0.146): 1.03
Estimated odds ratio, grade ≥2 amylase increase versus exposure ([4]; time-averaged AUC to first occurrence of an event, p = 0.094): 1.04 [0.99–1.09]
Effect of exposure on time to first brigatinib dose reduction (KM plots by exposure quartiles) ([4]; time-averaged AUC to the first occurrence of dose reduction): did not show a discernible effect
IRC-assessed confirmed objective response rate (ORR) [5, 9]: 56%
Median IRC-assessed progression-free survival (PFS) [5, 9]: 16.7 months
IRC-assessed intracranial ORR (iORR) [5, 10]: 67%
Median duration of (intracranial) response [5, 10]: 16.6 months
Hazard ratio versus crizotinib (superiority, PFS) ([6]; ALTA-1L first interim analysis, 95% CI: 0.33–0.74, p < 0.001): 0.49
Early onset pulmonary events, patients ([6]; ALTA-1L): 3%
Median PFS ([6]; ALTA-1L): ≥ 2 years
Median time to first brigatinib dose reduction ([6]; ALTA-1L): ~ 2 years
2-year intracranial PFS rate ([6]; ALTA-1L, patients with any baseline brain metastases): 48%
iORR ([6]; second ALTA-1L interim analysis, patients with measurable baseline brain metastases): 78%
Mean plasma elimination half-life [7]: 25 h
Incidence of any-grade AEs of elevated amylase [8]: 15% to 18
